According to publication PMC10997755, “Discovery of a small-molecule inhibitor that traps Polθ on DNA and synergizes with PARP inhibitors” (Nature Communications, 2024):
Several values for one entry are separate records, joined by “and”; a condition that tells them apart may be missing. Identical values can stand only once.

Test system: BRCA2-WT cells
Assay: Clonogenic assay (number of colonies counted)
Assay type: cell-based
Conditions: three replicates

In the case of `CN(C(=O)Oc1ccc(C(F)(F)F)cc1C(F)(F)F)c1ccc(F)cc1` [MC160385], the “number of olonies counted” value (MC160385 2.5 μM) is reported as 84 and 87 and 85, the “number of olonies counted” value (MC160385 5 μM) is reported as 82 and 86 and 83 and the “number of olonies counted” value (MC160385 10 μM) is reported as 80 and 84 and 82. The “number of olonies counted” value (MC160385 20 μM) was 79 and 84 and 80.
